Article PMC12395807, “Chemoreceptor family in plant-associated bacteria responds preferentially to the plant signal molecule glycerol 3-phosphate” (Genome Biology, 2025)

Legend:
[1] = test system: P. atrosepticum SCRI1043 pacP mutant (MpacP); assay: Quantitative capillary chemotaxis assay, pacP mutant; assay type: cell-based, Pectobacterium atrosepticum; settings: 1 mM ligand
Excerpt: A mutant defective in ECA_RS12390 was constructed by homologous recombination using a derivative plasmid of the suicide vector pKNG101. Briefly, a 0.5-kb fragment corresponding to the region encoding the LBD of ECA_RS12390 was amplified by the primers specified in Additional file 2: Table S2 and cloned into pGEM®-T. The resulting plasmid pGEM::ECA_RS12390 was digested with XmaI, and the 0.5-kb insert was cloned into the same site at pKNG101 to generate pKNG101::ECA_RS12390. This plasmid was subsequently transformed into P. atrosepticum SRCI1043 via biparental conjugation using E. coli β2163. All the plasmids were verified by PCR and sequencing. The pETb(+) derivatives encoding the LBD of the different receptors analyzed in this study (Table 1) were purchased from GeneScript. Plasmid pBBR-ECA_RS12390 was constructed by amplifying the pacP gene using the primers detailed in Additional file 2: Table S2 and cloning of the PCR product into the NdeI/BamHI sites of pBBR1MCS2_START. The sequences of the proteins analyzed in this study are provided in Additional file 2: Table S3. The ECA_RS12390 nucleotide sequence is available in the published genome of P. atrosepticum SCRI1043 [60].
Overnight cultures of P. atrosepticum SCRI1043 were grown at 30 °C in minimal medium. At an OD660 of 0.4–0.45, the cultures were washed twice with chemotaxis buffer (50 mM K2HPO4/KH2PO4, 20 μM EDTA, 0.05% (v/v) glycerol, pH 7.0) and diluted to an OD660 of 0.1 in the same buffer. Subsequently, 230 μL of the resulting bacterial suspension was placed into the wells of 96-well plates. One-microliter capillary tubes (P1424, Microcaps; Drummond Scientific) were heat-sealed at one end and filled with either chemotaxis buffer (negative control) or chemotaxis buffer containing PacP ligands at a concentration of 1 mM. The capillaries were immersed in the bacterial suspensions at their open ends. After 30 min at room temperature, the capillaries were removed from the bacterial suspensions, rinsed with sterile water, and the contents were expelled into 1 mL of 40 mM K2HPO4, 15 mM KH2PO4. Serial dilutions were plated onto minimal medium supplemented with 15 mM glucose as the carbon source. The number of colony-forming units was determined after 36 h of incubation at 30 °C. In all the cases, the data were corrected with the number of cells that swam into the buffer-containing capillaries.

[2] = test system: Pectobacterium atrosepticum SCRI1043; assay: Growth experiment, sole phosphorus source; assay type: cell-based; settings: PFM9 minimal medium, 5 mM ligand, 30 °C, 48 h
Procedure: (§1) P. atrosepticum SCRI1043 was cultured overnight in phosphate-free M9-based medium (PFM9) supplemented with 20 mM glucose as the carbon source and 500 µM inorganic phosphate as the phosphate source. Cultures were washed and then diluted to an OD600 of 0.02 in PFM9 supplemented with different PacP ligands as the sole carbon or phosphorous source at a final concentration of 5 mM. Subsequently, 200 µL aliquots of these cultures were transferred into microwell plates, which were subsequently grown at 30 °C on a Bioscreen microbiological growth analyzer (Oy Growth Curves Ab Ltd., Helsinki, Finland) for 48 h.

[3] = molecular target: LBD of chemoreceptor R7 (WP_019915375.1); assay: ITC binding to R7-LBD; design: species or system Methyloversatilis discipulorum; settings: 20 °C, Nb = no binding
Sequence of LBD of chemoreceptor R7 (WP_019915375.1) (as listed by the source): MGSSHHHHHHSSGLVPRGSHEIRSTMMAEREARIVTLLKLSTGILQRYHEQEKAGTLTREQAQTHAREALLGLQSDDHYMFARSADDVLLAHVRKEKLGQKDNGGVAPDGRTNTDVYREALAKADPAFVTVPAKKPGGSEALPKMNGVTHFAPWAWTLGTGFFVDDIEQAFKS
Procedure: (§2) Plasmids for the overexpression of the different proteins were transformed into E. coli BL21(DE3). The resulting strains were grown under continuous stirring (200 rpm) at 30 °C in 2-L Erlenmeyer flasks containing 500 mL of LB medium supplemented with 50 μg/mL kanamycin. At an OD660 of 0.5, protein expression was induced by the addition of 0.1 mM isopropyl β-D-1-thiogalactopyranoside. Growth was continued at 16 °C overnight prior to cell harvesting by centrifugation at 10,000 × g for 20 min. Cell pellets were resuspended in buffer A (Additional file 2: Table S4) and subsequently broken by French press treatment at 62.5 lb/in^2. After centrifugation at 20,000 × g for 30 min, the supernatants were loaded onto 5-mL HisTrap HP columns (Amersham Biosciences) equilibrated with buffer A, and the proteins were eluted with a linear gradient of buffer B (Additional file 2: Table S4). All proteins contain a hexa-histidine tag at the N-terminal extension (Additional file 2: Table S3) and were purified at 4 °C. The purified proteins were dialyzed overnight into the corresponding analysis buffers (Additional file 2: Table S4) for immediate analysis.
(§3) All experiments were conducted on a VP microcalorimeter (Microcal, MA) at 15 °C for PacP-LBD and at 20 °C for the remaining proteins. Proteins were dialyzed into the analysis buffers specified in Additional file 2: Table S4, placed into the sample cell and titrated with aliquots of ligand solutions (1 to 10 mM) freshly prepared in dialysis buffer. The mean enthalpies measured from the injection of the ligands into the analysis buffer were subtracted from the raw titration data prior to data analysis with the MicroCal version of ORIGIN. The data were fitted with the “One binding site model” of ORIGIN.

[4] = molecular target: LBD of chemoreceptor R3 (WP_006464688.1) (Herbaspirillum frisingense, UniProt A0ABU1PC34); assay: ITC binding to R3-LBD; settings: 20 °C, Nb = no binding
Sequence of LBD of chemoreceptor R3 (WP_006464688.1) (A0ABU1PC34 entry or part of it): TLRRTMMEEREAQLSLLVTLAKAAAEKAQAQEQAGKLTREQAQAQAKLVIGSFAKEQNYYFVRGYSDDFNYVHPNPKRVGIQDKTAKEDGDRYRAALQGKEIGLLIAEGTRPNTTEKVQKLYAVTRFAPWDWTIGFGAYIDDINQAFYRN
Procedure: as §2, §3

[5] = molecular target: LBD of chemoreceptor R9 (WP_189529961.1) (Paludibacterium paludis, UniProt A0A918NWY2); assay: ITC binding to R9-LBD; settings: 20 °C, Nb = no binding
Sequence of LBD of chemoreceptor R9 (WP_189529961.1) (A0A918NWY2 entry or part of it): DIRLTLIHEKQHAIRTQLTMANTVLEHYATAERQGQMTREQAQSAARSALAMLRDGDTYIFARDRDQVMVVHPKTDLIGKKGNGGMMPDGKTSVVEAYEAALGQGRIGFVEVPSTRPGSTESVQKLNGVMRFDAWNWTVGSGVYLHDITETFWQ
Procedure: as §2, §3

[6] = test system: Pectobacterium atrosepticum SCRI1043; assay: Growth experiment, sole carbon source; assay type: cell-based; settings: PFM9 minimal medium, 5 mM ligand, 30 °C, 48 h
Procedure: as §1

[7] = molecular target: LBD of chemoreceptor R2 (WP_136157342.1) (Brenneria roseae, UniProt A0A2U1TV64, H128N/K136R); assay type: binding; settings: ITC, 20 °C, R2 LBD; Nb = no binding
Sequence of LBD of chemoreceptor R2 (WP_136157342.1) (A0A2U1TV64 28-178 H128N/K136R): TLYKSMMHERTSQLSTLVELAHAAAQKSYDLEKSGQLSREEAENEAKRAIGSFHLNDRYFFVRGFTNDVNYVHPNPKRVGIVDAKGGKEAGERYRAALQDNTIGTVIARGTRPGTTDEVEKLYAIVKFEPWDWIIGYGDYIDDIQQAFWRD
Procedure: as §2, §3

SMILES	chemotaxis (capillary assay) [1]	growth as sole phosphorus source [2]	KD [3]	KD [4]	KD [5]	growth as sole carbon source [6]	KD [7]	KD ([3]; listed as Glycerol 3-P)	Kd [4]
O=C(O)[C@@H](O)COP(=O)(O)O [3-phosphoglycerate]	Only glycerol 2-phosphate served as an attractant for the mutant	permitted growth	Nb	Nb	Nb				
O=P(O)(O)OCC(O)CO (centres unmarked) [glycerol 3-phosphate]	Only glycerol 2-phosphate served as an attractant for the mutant	supported growth	bound	bound	Nb	supported growth	showed binding	Nb	33 ± 1 µM
